Results on one molecule are retold here after patent EP0347843A1, “Vitamine E composition improved in absorption” (Eisai Co., Ltd., priority 1988, dated 1989).

Structures are written as SMILES. ≈ marks a conversion by molar mass, not a printed value. Like-named read-outs stand apart in the source and are kept apart here.

The data set is described as follows: physchem. The protocol:
It was here determined how much influence a mixture of oleic acid and lecithin would put on the solubility of d-alpha-tocopherol. It was determined with changing ratios of the oleic acid to the lecithine how to dissolve d-alpha-tocopherol in 20 mM solution of bile acid.

Turning to `Cc1c(C)c2c(c(C)c1O)CC[C@@](C)(CCC[C@H](C)CCC[C@H](C)CCCC(C)C)O2` [d-alpha-tocopherol], the solubility entry was “high solubility”. For the same molecule, the concentration in solution (20 mm bile acid solution) (solubility) was 2000 µg/mL (≈ 4.64 mM).
